Measurements: patent US10672502B2, “Methods for determining protein structure using a surface-selective nonlinear optical technique” (Biodesy, Inc., priority 2015, dated 2020)
Read-outs that look alike come from different tables or passages of the source.

System: dihydrofolate reductase (DHFR)
Conditions: 1 uM TMP
Experimental: Immediately before applying DOPC/DGS NTA (Ni) lipids, clean microscope slides with Piranha wash for 20 minutes. Rinse 3× with diH2O in a slide staining vessel. Dry slides with compressed Nitrogen. Assemble SHG wells by attaching adhesive gaskets to Piranha-cleaned slides (i.e., 16 wells per slide containing 10-20 μl volume). Use an assembly jig to align gaskets, carefully lay slide into jig and press firmly. Dilute DOPC/DGS NTA (Ni) lipid prep 1:1 with PBS or TBS buffers. 100 mM NaCl is required to reduce hydrostatic charge of the glass slide and enable the supported lipid bilayer (SLB) to form. Pipet 10-20 μL of diluted DOPC/DGS NTA (Ni) lipid into the wells of the slide and incubate for 5 minutes at room temperature. Wash the wells by submersing the slide in buffer bath (PBS or TBS) and agitating with a 200 μL pipettor taking care not to introduce air into the wells at any time. Exchange the entire volume of buffer in the bath with fresh buffer and repeat the washing step 2 more times. Add a 1:1 volume of 100 mM NiCl2 solution to all wells and incubate for 10 minutes at room temperature. Wash the wells by submersing the slide in buffer bath (PBS or TBS) and agitating with a 200 μL pipettor. Exchange the entire volume of buffer in bath with fresh buffer and repeat the washing step 2 more times. […]

With `COc1cc(Cc2cnc(N)nc2N)cc(OC)c1OC` [TMP, trimethoprim] the “decrease in baseline signal (SHG % change, Izzz)” value (cysteine-labeled DHFR mutant tethered to Ni/NTA supported lipid bilayer via His tag at the C-terminus) was “approximately 90%” and the “decrease in baseline signal (SHG % change, Izzz)” value (cysteine-labeled DHFR mutant tethered to Ni/NTA supported lipid bilayer via His tag at the N-terminus, FIG. 14A) was “roughly 70%”.
